Laboratory results published in ChEMBL document CHEMBL4033701, “Cytotoxic triterpene diglycosides from the sea cucumber Stichopus horrens” (Bioorg Med Chem Lett, 2017).

Legend:
Type in all cases: functional, cell-based
[1] = system: HepG2; assay: Cytotoxicity against human HepG2 cells after 72 hrs by SRB assay; settings: HepG2, 72 h
[2] = system: LNCaP; assay: Cytotoxicity against human LNCAP cells after 72 hrs by SRB assay
[3] = system: SK-MEL-2; assay: Cytotoxicity against human SK-MEL-2 cells after 72 hrs by SRB assay; settings: SK-MEL-2, 72 h
[4] = system: MCF7; assay: Cytotoxicity against human MCF7 cells after 72 hrs by SRB assay; settings: MCF7, 72 h
[5] = system: KB; assay: Cytotoxicity against human KB cells after 72 hrs by SRB assay

SMILES	IC50 [1] [µM]	IC50 [2] [µM]	IC50 [3] [µM]	IC50 [4] [µM]	IC50 [5] [µM]
CC(=O)O[C@@H](CC(C)C)C[C@]1(C)OC(=O)[C@]23CC[C@H]4C(=CC[C@H]5C(C)(C)[C@@H](O[C@@H]6OC[C@@H](O)[C@H](O)[C@H]6O[C@@H]6O[C@H](CO)[C@@H](O)[C@H](O)[C@H]6O)CC[C@]45C)[C@]2(C)CC[C@@H]31	5.28	7.6	5.77	6.36	8.86
Cc1c2ccncc2c(C)c2c1[nH]c1ccccc12 [ELLIPTECINE]	–	1.95	1.91	–	1.79
CC(C)C[C@H](O)C[C@]1(C)OC(=O)[C@]23CC[C@H]4C(=CC[C@H]5C(C)(C)[C@@H](O[C@@H]6OC[C@@H](O)[C@H](O)[C@H]6O[C@@H]6OC[C@@H](O)[C@H](O)[C@H]6O)CC[C@]45C)[C@]2(C)CC[C@@H]31	53.8	59.3	41.9	52.2	48.4
C=C(C)CCC(O)[C@]1(C)OC(=O)[C@]23CC[C@H]4C(=CC[C@H]5C(C)(C)[C@@H](O[C@@H]6OC[C@@H](O)[C@H](O)[C@H]6O[C@@H]6O[C@H](CO)[C@@H](OS(=O)(=O)O)[C@H](O)[C@H]6O)CC[C@]45C)[C@]2(C)CC[C@H]13 (stereo partly drawn)	55.3	51.5	67.2	59.5	45.4
C=C(C)C[C@@H](C[C@]1(C)OC(=O)[C@]23CC[C@H]4C(=CC[C@H]5C(C)(C)[C@@H](O[C@@H]6OC[C@@H](O)[C@H](O)[C@H]6O[C@@H]6OC[C@@H](O)[C@H](O)[C@H]6O)CC[C@]45C)[C@]2(C)CC[C@@H]31)OC(C)=O	1.92	3.13	2.27	2.11	2.36
C=C(C)C[C@@H](C[C@]1(C)OC(=O)[C@]23CC[C@H]4C(=CC[C@H]5C(C)(C)[C@@H](O[C@@H]6OC[C@@H](O)[C@H](O)[C@H]6O[C@@H]6O[C@H](CO)[C@@H](O)[C@H](O)[C@H]6O)CC[C@]45C)[C@]2(C)CC[C@@H]31)OC(C)=O	7.03	10.1	10.8	7.25	11
CC(=O)O[C@@H](CC(C)C)C[C@]1(C)OC(=O)[C@]23CC[C@H]4C(=CC[C@H]5C(C)(C)[C@@H](O[C@@H]6OC[C@@H](O)[C@H](O)[C@H]6O[C@@H]6OC[C@@H](O)[C@H](O)[C@H]6O)CC[C@]45C)[C@]2(C)CC[C@@H]31	2.04	2.7	2.21	2.08	3.11
C=C(C)CCC(O)[C@]1(C)OC(=O)[C@]23CC[C@H]4C(=CC[C@H]5C(C)(C)[C@@H](O[C@@H]6OC[C@@H](O)[C@H](O)[C@H]6O[C@@H]6O[C@H](CO)[C@@H](O)[C@H](O)[C@H]6O)CC[C@]45C)[C@]2(C)CC[C@H]13 (stereo partly drawn)	37.9	51.6	43.5	41.9	33.5
CC(=O)O[C@@H](CC(C)C)C[C@]1(C)OC(=O)[C@]23CC[C@H]4C(=CC[C@H]5C(C)(C)[C@@H](O[C@@H]6OC[C@@H](O)[C@H](O)[C@H]6O[C@@H]6O[C@H](C)[C@@H](O)[C@H](O)[C@H]6O)CC[C@]45C)[C@]2(C)CC[C@@H]31	2.97	3.02	2.7	2.12	2.82
